We go through three compounds from patent US5023273A, “6-oxoprostaglandin E derivatives, process for their production and their pharmaceutical use” (Schering Aktiengesellschaft, priority 1987, dated 1991).

Test [1] deals with Thrombocyte. Put plainly: Thrombocyte aggregation inhibition. Type of test: cell-based. The method, then:
(§1) The pharmacological comparison tests, which were conducted with the compounds from examples 1 and 4 in comparison with 6-oxo-PGE1, are summarized in the following table.

In test [2] the test system is Thrombocyte. Nature of the test: Thrombocyte shape change. Type of test: cell-based. The method, then:
as §1

The test system of test [3] is Stomach (rats, trauma with ethanol). Nature of the test: Cytoprotection, stomach (rats, trauma with ethanol). The format is in vivo. The note with it: 10 micrograms/kg. How it is done: as §1

As a reminder, the IC50 is the concentration at which inhibition is half-maximal. Consider `CC#CCC(C)[C@H](O)/C=C/[C@H]1[C@H](O)CC(=O)[C@@H]1CC(=O)CCCCC(=O)O` (mixture of isomers) [Example 1, (13E)-(11R,15S,16RS)-6,9-Di-oxo-11,15-dihydroxy-16-methyl-18,18,19,19-tetradehydro-13-prostenoic acid], for which the values for the half-maximal inhibitory concentration (IC50) in the test on Thrombocyte [1] and in the test on Thrombocyte [2] were 1.7 nM and 10 nM, respectively.
The matching figures for `CCC#CC[C@H](C)[C@H](O)C#C[C@H]1[C@H](O)CC(=O)[C@@H]1CC(=O)CCCCC(=O)O` [Example 4, (11R,15S,16S)-6,9-di-oxo-11,15-dihydroxy-16,20-dimethyl-13,14,18,18,19,19-hexadehydroxy-13-prostenoic acid]: 0.09 nM and 1 nM.
For the compound `CCCCC[C@H](O)/C=C/[C@H]1[C@H](O)CC(=O)[C@@H]1CC(=O)CCCCC(=O)O` [Example 6oxoPGE1, reference compound], the IC50 in the test on Thrombocyte [1] was 7 nM. The “Cytoprotection, stomach: inhibition” value in test [3] amounted to 52%.
